Assay results: US6548499B1, “Substituted quinoxaline derivatives as interleukin-8 receptor antagonists” (Millennium Pharmaceuticals, Inc., priority 1998, dated 2003)

System: human neutrophils
Test: IL-8 chemotaxis assay
Type: cell-based
Conditions: Neutrophil, 0.5 h; freshly isolated human neutrophils, rhIL-8 as chemoattractant, 30 minutes at 37° C.
Method: Compounds of Formula I and II were evaluated for their effect on chemotaxis using methodology known in the art, e.g., Carr M. W., Roth S. J., Luther E., Rose S. S., and Springer T. A., “Monocyte chemoattractant protein 1 acts as a T-lymphocyte chemoattractant.” Proc. Natl. Acad Sci. USA, 1994;91:3652; Qin S., Larosa G., Campbell J. J. et al., “Expression of MCP-1 and IL-8 receptors on subset on T-cells, and correlation with transendothelial chemotactic potential,” Eur. J. Immu., 1996;26:640.
Briefly, freshly isolated human neutrophils were resuspended in chemotaxis buffer, which is made of one part of RPMI 1640 medium, one part of Medium 199, and 0.5% BSA. The cells were incubated with or without compounds for 5 minutes. Similarly, rhIL-8 was incubated in a separate plate, then transferred into lower chambers of chemotaxis plate. Neutrophils were added onto the top chamber. The plates were incubated at 37° C. for 30 minutes. The top chamber was then removed and the plate frozen at −80° C. for 30 minutes. After thawing, migrated cells were stained with Cytoquant Cell Proliferation Assay Kit (Molecular Probes No. C-7026) and quantitated by reading the plate on a fluorescent plate reader.

| Molecule | IC50 |
| --- | --- |
| CCN(CC)CCCCNc1nc2cc(Cl)c(Cl)cc2nc1-c1ccc(C)s1 [Example 28, N′-[6,7-Dichloro-3-(5-methyl-thiophen-2-yl)quinoxalin-2-yl]-N,N-diethyl-butane-1,4-diamine] | 0.4 µM |
| CN(C)CCCNc1nc2cc(Cl)c(Cl)cc2nc1-c1ccco1 [Example 14, N′-(6,7-Dichloro-3-furan-2-yl-quinoxalin-2-yl)-N,N-dimethyl-propane-1,3-diamine] | 1.8 µM |
| CCN(CC)CCCCNc1nc2cc(Cl)c(Cl)cc2nc1-c1ccc(-c2cccs2)s1 [Example 34, N′-(3-[2,2′]Bithiophenyl-5-yl-6,7-dichloro-quinoxalin-2-yl)-N,N-diethyl-butane-1,4-diamine] | 0.08 µM |
| CCN(CC)CCCCNc1nc2cc(Cl)c(Cl)cc2nc1-c1cc2ccccc2s1 [Example 25, N′(3-Benzo[b]thiophen-2-yl-6,7-dichloro-quinoxalin-2-yl)-N,N-4-diethyl-butane-1,4-diamine] | 0.31 µM |
| CN(C)CCCNc1nc2cc(Cl)c(Cl)cc2nc1-c1cccs1 [Example 15, N′-(6,7-Dichloro-3-thiophen-2-yl-quinoxalin-2-yl)-N,N-dimethyl-propane-1,3-diamine] | 0.32 µM |

Same assay, conditions: freshly isolated human neutrophils, rhIL-8 as chemoattractant, 30 minutes at 37° C.

| Molecule | IC50 |
| --- | --- |
| 6-Chloro-N-[4-(dimethylamino)cyclohexyl]-3-(2-pyridinyl)-2-quinoxalinamine and 7-Chloro-N-[4-(dimethylamino)cyclohexyl]-3-(2-pyridinyl)-2-quinoxalinamine, Dihydrochloride, Hydrate [Example 1] | 0.89 µM |

System: human neutrophils
Test: IL-8 calcium flux assay
Type: cell-based
Conditions: @ 11 μM; human neutrophils stimulated with human IL-8
Method: Compounds of Formula I and II were evaluated for their effect on calcium flux using methodology known in the art, e.g., Neote K., DiGregorio D., Mak J. Y., Horuk R., and Schall T. J., “Molecular cloning, functional expression, and signaling characteristics of a C—C chemokine receptor,” Cell, 1993;72:415.
Briefly, human neutrophils were incubated with the fluorescence dye FLUO-3 for 1 hour. The cells were washed after this loading period, resuspended in HANKs buffer, and loaded into a 96-well plate. Compound was added to each well. After a 2-minute incubation period, the cells were stimulated with human IL-8 and the calcium flux response recorded and quantified.

| Molecule | IL-8 Ca+2 Flux % Inhibition (μM) |
| --- | --- |
| 6-Chloro-N-[4-(dimethylamino)cyclohexyl]-3-(2-pyridinyl)-2-quinoxalinamine and 7-Chloro-N-[4-(dimethylamino)cyclohexyl]-3-(2-pyridinyl)-2-quinoxalinamine, Dihydrochloride, Hydrate [Example 1] | 34% @ 11 |

System: not given
Test: not given
Conditions: not given

| Molecule | melting point |
| --- | --- |
| CN1CCCC1CCNc1nc2ccccc2nc1-c1ccccn1 (stereo not drawn) [Example 4, N-[2-(1-Methyl-2-pyrrolidinyl)ethyl]-3-(2-pyridinyl)-2-quinoxalinamine] | 186 to 188 °C |
| CN(C)c1ccc(Nc2nc3ccccc3nc2-c2ccccn2)cc1 [Example 8, N-[4-(Dimethylamino)phenyl]-3-(2-pyridinyl)-2-quinoxalinamine] | 169 to 170 °C |
| CCCc1ccc(-c2nc3cc(Cl)c(Cl)cc3nc2NCCCCN(CC)CC)s1.Cl | 165 to 167 °C |
| c1ccc(-c2nc3ccccc3nc2Nc2ccc(N3CCOCC3)cc2)nc1 [Example 6, N-[4-(4-Morpholinyl)phenyl]-3-(2-pyridinyl)-2-quinoxalinamine] | 205 to 206 °C |
| CC(=O)N(C)c1ccc(Nc2nc3ccccc3nc2-c2ccccn2)cc1 [Example 9, N-Methyl-N-[4-[[3-(2-pyridinyl)-2-quinoxalinyl]amino]phenyl]-acetamide] | 165 to 166 °C |
| Cl.Clc1cc2nc(-c3ccccn3)c(N3CCC(N4CCCCC4)CC3)nc2cc1Cl | 275 to 277 °C (dec.) |
| CCN(CC)CCCCNc1nc2cc(Cl)c(Cl)cc2nc1-c1cccc2c1sc1ccccc12.Cl | 134 to 136 °C |
| c1ccc(-c2nc3ccccc3nc2NC2CN3CCC2CC3)nc1 (stereo not drawn) | 63 to 65 °C |
| c1ccc(-c2nc3ccccc3nc2NCc2ccncc2)nc1 [Example 7, N-(4-Pyridinylmethyl)-3-(2-pyridinyl)-2-quinoxalinamine] | 142 to 144 °C |
| CCN(CC)CCCCNc1nc2cc(Cl)c(Cl)cc2nc1-c1ccc(Cl)s1.Cl | 98 to 100 °C |
| c1ccc(-c2nc3ccccc3nc2NCCCn2ccnc2)nc1 [Example 3, N-[3-(1H-Imidazol-1-yl)propyl]-3-(2-pyridinyl)-2-quinoxalinamine] | 85 to 86 °C |
| CCN(CC)CCCCNc1nc2cc(Cl)c(Cl)cc2nc1-c1cc2ccccc2o1.Cl | 220 °C |
| CCN(CC)CCCCNc1nc2cc(Cl)c(Cl)cc2nc1-c1cc2ccccc2[nH]1.Cl | 145 to 147 °C |
| CCN(CC)Cc1ccc(Nc2nc3cc(Cl)c(Cl)cc3nc2-c2ccccn2)cc1 [Example 13, (6,7-Dichloro-3-pyridin-2-yl-quinoxalin-2-yl)-(4-diethylaminomethyl-phenyl)-amine] | 250 to 252 °C (dec.) |
| CN(C)CCCCNc1nc2cc(F)c(F)cc2nc1-c1cccs1 [Example 17, N′-(6,7-Difluoro-3-thiophen-2-yl-quinoxalin-2-yl)-N,N-dimethyl-butane-1,4-diamine] | 175 to 177 °C |
| Cl.N[C@H]1CC[C@H](Nc2nc3cc(Cl)c(Cl)cc3nc2-c2ccccn2)CC1 | 280 to 282 °C (dec.) |
| CN(C)C1CCC(Nc2nc3cc(Cl)c(Cl)cc3nc2-c2ccccn2)CC1.Cl (stereo not drawn) | 180 to 182 °C |
